PubChem BioAssay AID742 (SRMLSC, 2007)
pEC50: −log10 of the molar value. The source made the active and inactive calls. How the calls were made is not given here.

Tests used:
[1] = inhibitors of Her2 kinase expression, dose response, cell-based, AlphaScreen, CellTiter-Glo viability (AID 742); details: human cells, Her2 expression AlphaScreen; CTG viability; at 9.62 µM (top of the series)
[2] = system: human cells, Her2 expression AlphaScreen; CTG viability; experiment: as above; details: viability, CellTiter-Glo

SMILES | Her2 inhibition [1] | pEC50 [2]
COC(=O)c1sccc1NC(=O)c1csc(C)c1 | 29.8% (inactive) | < 5.02
O=C(c1ccc(F)cc1)C(CN1CCOCC1)c1ccccc1 (centres undefined) | 28.5% (inactive) | < 5.02
S=C1SCN(CCN2CCOCC2)CN1Cc1ccccc1 | -20.1% (inactive) | < 5.02
C#CCOC(=O)c1ccccc1C(=O)OCC#C | -22.6% (inactive) | < 5.02
Cc1c(NC(=O)c2coc(=O)c(Br)c2)c(=O)n(-c2ccccc2)n1C | 7.39% (inactive) | < 5.02
COc1ccc(OCC(=O)NCc2cccnc2)cc1 | -22.7% (inactive) | < 5.02
CCn1c(C)cc(=S)c2ccccc21 | -25.6% (inactive) | < 5.02
O=C(Nc1ccc(Cl)cc1)Nc1ccc2c(c1)N1CCN=C1S2 | -7.78% (inactive) | < 5.02
OC(CN1CCN(c2cccc(C(F)(F)F)c2)CC1)c1c[nH]c2ccccc12 (centres undefined) | 4.59% (inactive) | < 5.02
CCOC(=O)c1c(C)oc2c1c(C(c1ccncc1)N1CCOCC1)c(O)c1ccccc12 (centres undefined) | 23.5% (inactive) | < 5.02
CCc1nc(C)ccc1OCC(=O)NCCCN(C)C | -3% (inactive) | < 5.02
CC(C)C(=O)N(Cc1cc2ccccc2[nH]c1=O)C(C)(C)C | -2.53% (inactive) | < 5.02
N#Cc1ccc(-c2ccco2)nc1SCc1ccccc1 | 14.8% (inactive) | < 5.02
CC(C)c1nnc(NC(=O)CCS(=O)(=O)c2nc(-c3cccs3)cc(C(F)(F)F)n2)s1 | 16.2% (inactive) | < 5.02
CS(=O)(=O)c1ccc(Cl)c(NC(=O)COC(=O)CNC(=O)c2ccc(Br)o2)c1 | 5.14% (inactive) | < 5.02
Cc1ccc(S(=O)(=O)c2c(C)nn(C(C)(C)C)c2OC(=O)c2ccc(Br)o2)cc1 | 4.78% (inactive) | < 5.02
C=C(C)COc1ccc(-c2n[nH]c(C)c2-c2ccccc2OC)c(O)c1 | 4.56% (inactive) | < 5.02
c1ccc(CNC2=NCCC2)nc1 | -3.59% (inactive) | < 5.02
Cc1ccccc1-n1nc2c(c1NC(=O)c1cc3ccccc3oc1=O)CS(=O)(=O)C2 | -11.6% (inactive) | < 5.02
CCOC(=O)CC(N)c1ccc2c(c1)OCO2 (centres undefined) | -8.02% (inactive) | < 5.02
N#CC(C#N)=c1ccc2c(c1)N1C3=C(CCCC3)CC3CCCCC31N=2 (centres undefined) | 24.3% (inactive) | < 5.02
CCn1c(=O)c(C(=O)Nc2nc3ccccc3[nH]2)c(O)c2ccccc21 | 41.2% (inactive) | < 5.02
CCOC(=O)Cn1nnnc1C(CC)N(Cc1cccs1)Cc1cc2ccc(OC)cc2[nH]c1=O (centres undefined) | 22.9% (inactive) | < 5.02
COc1ccc(Cl)c(Cn2c(NCc3ccco3)nc3c2c(=O)n(C)c(=O)n3C)c1 | 0.72% (inactive) | < 5.02
CCC(C)NC(=O)c1cnn2c1NC(c1ccc3c(c1)OCO3)CC2C(F)(F)F (centres undefined) | -0.33% (inactive) | < 5.02
Nc1nc(-c2cccs2)c(NC(=O)c2ccccc2)s1 | -8.18% (inactive) | < 5.02

SMILES | Her2 inhibition [1] | pEC50 [2]
CCN1C(=O)CC(C(=O)Nc2ccc(F)cc2)SC1=Nc1ccc2c(c1)OCO2 (centres undefined) | -33.1% (inactive) | < 5.02
O=C1C2ON(c3ccccc3)C(c3cccnc3)C2C(=O)N1c1ccc(Cl)c(Cl)c1 (centres undefined) | -16.1% (inactive) | < 5.02
O=C(c1ccco1)N(Cc1ccco1)c1ccc(O)cc1 | -0.36% (inactive) | < 5.02
COc1ccc(CCN2CCC(Nc3nc4ccccc4n3Cc3ccc(F)cc3)CC2)cc1 | -28.9% (inactive) | < 5.02
Cc1cc(-c2ccccc2)nc(=O)[nH]1 | -18.4% (inactive) | < 5.02
N#C/C(=C/c1ccc(N2CCCCCC2)o1)c1ccc(F)cc1 | 4.22% (inactive) | < 5.02
O=S(=O)(CCN1CCN(C(c2ccccc2)c2ccccc2)CC1)C(F)(F)F | -1.03% (inactive) | < 5.02
COc1ccccc1-c1cc(C(F)(F)F)nc(S(=O)(=O)CCCC(=O)NC(C)C)n1 | 5% (inactive) | < 5.02
COC(=O)c1[nH]c2ccc(Br)cc2c1NC(=O)C(C)N1CCN(C2CCCCC2)CC1 (centres undefined) | -20.7% (inactive) | < 5.02
Cc1ccc(S(=O)(=O)CCC(=O)c2ccc(O)cc2O)cc1 | 1.34% (inactive) | < 5.02
COC(=O)CS(=O)(=O)c1nnc([C@H](Cc2ccccc2)NC(=O)OC(C)(C)C)o1 | -2.38% (inactive) | < 5.02
O=C(c1n[nH]c(=O)c2ccccc12)N1CCN(c2ccccc2)CC1 | -18.2% (inactive) | < 5.02
CCSC1(SCC)N=C(N)C2(C#N)C(c3ccc(OC)c(OC)c3OC)C12C#N (centres undefined) | 6.24% (inactive) | < 5.02
Cc1ccc2nc(Nc3ccccc3)c(/C=N/O)c(=O)n2c1 | -10.3% (inactive) | < 5.02
CCOc1cc(C(=O)NCCOC)ccc1OC | -7.59% (inactive) | < 5.02
CCOC(=O)CCS(=O)(=O)c1nc(-c2ccccc2)cc(C(F)(F)F)n1 | 27.6% (inactive) | < 5.02
CC(=NCC1CCCO1)c1c(O)n(-c2ccccc2)c(=O)[nH]c1=O (centres undefined) | -6.53% (inactive) | < 5.02
Cc1ccc(/C=C/C2=Cc3c(sc(NC(=O)CSc4n[nH]c(N)n4)c3C#N)C(C)(C)C2)o1 | -0.68% (inactive) | < 5.02
C=CCc1cccc2cc(C(=O)NC)c(=O)oc12 | 3.58% (inactive) | < 5.02
COc1ccccc1C(CC(=O)Nc1nccs1)c1ccco1 (centres undefined) | 3.82% (inactive) | < 5.02
CCN(CC)c1ccc(-c2nn3c(-c4n[nH]c5c4CCC5)nnc3s2)cc1 | -1.69% (inactive) | < 5.02
O=S(=O)(CCSc1ccccn1)c1nc2ccccc2s1 | 12.7% (inactive) | < 5.02
Cc1nn(C)c(C)c1Sc1ccc(Br)cc1 | -6.9% (inactive) | < 5.02
O=C(NCc1cccs1)c1nc2c(nnn2Cc2ccccc2Cl)c(=O)[nH]1 | 45.2% (inactive) | < 5.02
CCOC(=O)N1CCN(CCC(=O)c2ccc(Cl)cc2)CC1 | 9.27% (inactive) | < 5.02
Cc1ccc(C)n1-c1ccc(N2CCOCC2)nc1 | 3.86% (inactive) | < 5.02

SMILES | Her2 inhibition [1] | pEC50 [2]
Oc1cccc2ccc(Nc3ccccn3)nc12 | 31.3% (inactive) | < 5.02
CC12CCCCC1(O)[N+](=O)C1=C(CCCC1)N2[O-] (centres undefined) | -13.5% (inactive) | < 5.02
O=C(Oc1ccc2c(c1)OCO2)c1cc2c(s1)CCC2 | 41.1% (inactive) | < 5.02
N=c1c2c(-c3ccccc3)c(-c3ccccc3)n(Cc3ccco3)c2ncn1Cc1ccco1 | -27.8% (inactive) | < 5.02
COc1ccc(-c2nnc(SC(=O)N3c4ccccc4Sc4ccccc43)o2)cc1 | -24.1% (inactive) | < 5.02
CCCCn1c(O)c(C(C)=NCCN2CCCCC2)c(=O)[nH]c1=O | -17.4% (inactive) | < 5.02
COc1cccc(N2CCN(c3ncnc4c3[nH]c3ccc(F)cc34)CC2C)c1 (centres undefined) | -42.1% (inactive) | > 7.62
N=c1n(CCO)c2ccccc2n1CCOc1ccc(Cl)cc1Cl | -2.09% (inactive) | < 5.02
CCOc1cc(C(=O)CSc2nnc(CNc3ccc(Cl)cc3)o2)ccc1NC(=O)CC | -22.6% (inactive) | < 5.02
OCCN1CCN(CCCN2c3ccccc3Sc3ccc(C(F)(F)F)cc32)CC1 | 12.6% (inactive) | < 5.02
N#CC1=C2SCN(c3ccccc3)CN2C(=O)CC1c1cccs1 (centres undefined) | -27.6% (inactive) | < 5.02
CCCc1[nH]nc2c1C(c1ccc(OC)c(Cn3nc(C)c(Br)c3C)c1)C(C#N)=C(N)O2 (centres undefined) | -0.44% (inactive) | < 5.02
C1CCC(C(CC2CCCCN2)C2CCCCC2)CC1 (centres undefined) | -33.2% (inactive) | < 5.02
CCC(=O)OC1(C#CCOc2ccc(OC)cc2)CCN(C)CC1 | -12.2% (inactive) | < 5.02
CCc1ccc(-c2nc(CN3CCC(C(=O)N4CCN(c5ccccc5)CC4)CC3)c(C)o2)cc1 | -74% (inactive) | < 5.02
CCCc1cc(C(=O)Cc2ccc(F)cc2)c(O)cc1O | -30.2% (inactive) | < 5.02
COc1ccccc1-c1cc(C(F)(F)F)nc(S(=O)(=O)CCCC(=O)N2CCCCC2C)n1 (centres undefined) | -11.6% (inactive) | < 5.02
Cc1cc(-c2nnc3n2N=C(c2ccc(-c4ccccc4)cc2)CS3)n[nH]1 | -21.4% (inactive) | < 5.02
COc1cc(NS(=O)(=O)c2ccc(C)cc2)c2ncccc2c1 | 18.5% (inactive) | < 5.02
CCOc1ccc(CNc2ccc3c(c2)ncn3C)cc1 | 8.61% (inactive) | < 5.02
CCOC(=O)N1CCN(c2nnnn2-c2ccccc2)CC1 | -3.51% (inactive) | < 5.02
O=C1/C(=N/n2cnnc2)c2ccccc2N1Cc1ccccc1 | -25% (inactive) | < 5.02
CN1/C(=C/C(=O)c2nc(S(C)(=O)=O)ncc2Cl)C(C)(C)c2ccccc21 | 23.3% (inactive) | < 5.02
Cc1c(C#N)c(N)c(C(=O)c2ccccc2)n1Cc1ccccc1 | -0.29% (inactive) | < 5.02
COc1ccc(-c2cc(N)n(S(=O)(=O)c3c(F)c(F)c(F)c(F)c3F)n2)cc1OC | 48.8% (inactive) | < 5.02
